Measured values: article PMC7662849, “Mimicking the Nucleosomal Context in Peptide-Based Binders of a H3K36me Reader Increases Binding Affinity While Altering the Binding Mode” (Molecules, 2020)
Read-outs that look alike come from different tables or passages of the source. Positions of bridges follow the written chain, without caps; N, C: chain ends. Non-standard residues stand in square brackets, D forms with d. Residues, ends and D or L forms follow the SMILES beside them. Chains are numbered I, II in the order given. Lys(Me3) = C[N+](C)(C)CCCC[C@H](N)C(=O)O

Biological target: T1, PSIP1^PWWP (AA 2-100, Uniprot-ID: O75475) (Homo sapiens, UniProt O75475)
T1 construct: PSIP1^PWWP (AA 2-100, Uniprot-ID: O75475); GST (cleaved yes); made in house; host or cells: E. coli BL21 Rosetta2 (DE3)
T1 sequence (O75475 2-100): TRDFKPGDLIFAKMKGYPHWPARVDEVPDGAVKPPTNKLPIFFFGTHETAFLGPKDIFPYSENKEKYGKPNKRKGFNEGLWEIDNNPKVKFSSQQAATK
Assay: NMR titration (15N-HSQC chemical shift perturbation) of peptides binding to PSIP1 PWWP domain
Protocol: Cells were grown to an OD of 0.6 and induced with 500 μM IPTG. The protein was expressed for 3 h at 37 °C. […] The GST-fusion protein was eluted using elution buffer (50 mM KPi pH 7.0, 100 mM KCl, 50 mM reduced glutathione, 1 mM DTT, complete EDTA-free protease inhibitor (Roche)). Thrombin cleavage of the GST-tag was carried out for 3 h at 37 °C after adding 10U of thrombin to the combined eluted fractions, then quenched by addition of 1 mM PMSF and incubation for 15 min at 37 °C. […] The PWWP-containing fractions were then combined and dialyzed to NMR buffer (20 mM NaPi (pH = 7.0), 150 mM NaCl, cOmplete protease inhibitor, 10% (v/v) D2O).
All peptides were dissolved in NMR buffer (20 mM NaPi (pH = 7.0), 150 mM NaCl, cOmplete protease inhibitor, 10% (v/v) D2O). The pH for all peptide stocks was adjusted to 7.0 using NH4OH. Determination of peptide stock concentrations was done using 1D NMR spectra with TSP as reference compound. […] The Val signal was verified by 2D NMR spectra (TOCSY, ^13C-HSQC).
All NMR experiments were carried out at 298 K on a Bruker Avance spectrometer operating at 750 MHz ^1H Larmor frequency with room-temperature probe. Processing was done using the Bruker’s TopSpin. Spectra were analyzed using Sparky (Goddard and Kneller, UCSF).
Titration data were fitted using MatLAB scripts (available upon request) using the fast-exchange assumption [50]. […] Profiles were selected either form the ^1H or ^15N dimension. A 1:1 binding model was assumed. […] The degrees of freedom are equal to total number of points NM compensated for the number of global variables (KD), the M offset-variables and M chemical shift differences. To obtain the 95% confidence limits in the KD, a one-dimensional grid search was performed either systematically increasing or decreasing the KD until the reduced χ^2 exceeded the 95% critical value according to an F-test.
Analysis of the bound-state chemical shifts was based on selected residues K14 (^1H/^15N), M15 (^1H), W21 (^1H), F44 (^15N) T47 (^1H/^15N), H48 (^1H), T50 (^1H/^15N) and A51 (^1H/^15N) due to their significant shift in all experiments.

Kd (same titration and fit, limits from grid search, F-test, read-out: KD, 95% probability limits) [µM]	Kd (~300 µM 15N-PSIP1^PWWP, 20 mM NaPi pH 7.0, 150 mM NaCl, 298 K, 1:1 binding model, read-out: KD (global fit of NMR-derived binding curves)) [µM]	Kd (~300 µM 15N-PSIP1^PWWP, 20 mM NaPi pH 7.0, 150 mM NaCl, 10% D2O, 298 K, 1:1 binding model, fast exchange, global fit of all residues with significant CSP, read-out: KD, best-fit value (global fit of NMR titration data)) [µM]	Compound
190 to 700	360		CC(=O)N[C@@H](CO)C(=O)N[C@@H](C)C(=O)N1CCC[C@H]1C(=O)N[C@@H](C)C(=O)N[C@H](C(=O)NCC(=O)NCC(=O)N[C@H](C(=O)N[C@@H](CCCC[N+](C)(C)C)C(=O)NCC(=O)NCC(=O)NCCCC[C@H](NC(=O)CNC(=O)CNC(=O)[C@H](CCC(=O)O)NC(=O)[C@H](CCC(=O)O)NC(=O)[C@H](CCC(=O)O)NC(=O)[C@H](CCC(=O)O)NC(=O)[C@H](CCC(=O)O)NC(C)=O)C(=O)NCC(=O)NCC(=O)N[C@@H](CCC(=O)O)C(=O)N[C@@H](CCC(=O)O)C(=O)N[C@@H](CCC(=O)O)C(=O)N[C@@H](CCC(=O)O)C(=O)N[C@@H](CCC(=O)O)C(N)=O)C(C)C)[C@@H](C)O [H3^(E5)2] (I: Ac-EEEEEGGKGGEEEEE-NH2 / II: Ac-SAPATGGV[Lys(Me3)]GG; amide I:8-II:C; N-terminus and C-terminus assumed)
		1740	CC(=O)N[C@@H](CO)C(=O)N[C@@H](C)C(=O)N1CCC[C@H]1C(=O)N[C@@H](C)C(=O)N[C@H](C(=O)NCC(=O)NCC(=O)N[C@H](C(=O)N[C@@H](CCCC[N+](C)(C)C)C(=O)N[C@@H](CCCCN)C(=O)N1CCC[C@H]1C(=O)N[C@@H](CCC(=O)O)C(=O)N[C@@H](CCC(=O)O)C(=O)N[C@@H](CCC(=O)O)C(=O)N[C@@H](CCC(=O)O)C(=O)N[C@@H](CCC(=O)O)C(=O)N[C@@H](CCC(=O)O)C(N)=O)C(C)C)[C@@H](C)O [H3^PE6] (Ac-SAPATGGV[Lys(Me3)]KPEEEEEE-NH2)
